Reference: PubChem BioAssay AID712 (Emory University Molecular Libraries Screening Center, 2007)
Calls of active or inactive are those of the source. The rule behind the calls is not given here.

biological target: Heat shock protein HSP 90-alpha (Homo sapiens) (UniProt P07900); test: tumor Hsp90 inhibitor potency, dose response (AID 712); conditions: Hsp90 inhibition assay

SMILES	IC50
N#Cc1c(-c2ccco2)[nH]c(=O)[nH]c1=O	> 50 µM (inactive)
COc1ccc(S(=O)(=O)Nc2ccc(N)c(-c3ccccc3O)c2)cc1OC	> 50 µM (inactive)
COc1cc(NCC(O)CN(CC(C)C)CC(C)C)c2nc(C)ccc2c1 (stereo not given)	> 50 µM (inactive)
CCOc1ccc2ccccc2c1-c1cc(NS(=O)(=O)c2cc(Cl)ccc2Cl)ccc1N	> 50 µM (inactive)
CCS(=O)(=O)NCc1ccc2[nH]c3c(c2c1)CCCC3	29.2 µM
CCOC(=O)C1=C(C)OC(N)=C(C(=O)OCC)C1c1cccnc1 (stereo not given)	> 50 µM (inactive)
COc1cc(C2CC(c3ccccc3O)=NN2)ccc1O (stereo not given)	> 50 µM (inactive)
COc1cc(NCCCC(C)=O)c2nccc(OCc3ccccc3)c2c1	> 50 µM (inactive)
Nc1cccc2cc(O)ccc12	> 50 µM (inactive)
CC(=O)CCCNc1c(OCc2ccccc2)ccc2c(C)cc(=O)oc12	> 50 µM (inactive)
N#Cc1cc(S(=O)(=O)Nc2cc(OCc3ccccc3)cc3cccnc23)ccc1F	> 50 µM (inactive)
O=C1C(c2cnc3c(n2)CCC=C3)=C(O)c2ccccc21	> 50 µM (inactive)
O=C1c2ccccc2C(=O)N1Cc1ccc2c(c1)OCO2	> 50 µM (inactive)
CCc1cc(C(=O)Cc2ccc(F)cc2)c(O)cc1O	> 50 µM (inactive)
N#Cc1ccc(CSc2nnc(Nc3ccccc3)s2)cc1	> 50 µM (inactive)
CC(=O)Oc1cc2oc(=O)cc(C)c2cc1OC(C)=O	> 50 µM (inactive)
Cc1nc(SCC(=O)c2ccc(O)cc2O)n[nH]1	> 50 µM (inactive)
Cn1c(=O)c2c(nc(NCc3ccc4c(c3)OCO4)n2C)n(C)c1=O	> 50 µM (inactive)
Nc1cc2ccccc2c(O)c1O	< 1.56 µM
CC(=O)Oc1cccc2c1C(=O)c1c(OC(C)=O)cc(C(=O)O)cc1C2=O	9.23 µM
O=C(CSc1n[nH]c(-c2ccccc2)n1)c1ccc(O)c(O)c1	7.72 µM
Nc1cc(Br)cc2cccnc12	> 50 µM (inactive)

SMILES	IC50
CCN(CC)CC(O)c1ccnc2c(O)cccc12 (stereo not given)	> 50 µM (inactive)
Cc1ccc(S(=O)(=O)Nc2cc(O)cc3cccnc23)cc1	> 50 µM (inactive)
O=C1C(C2=C(O)c3ccccc3C2=O)=Nc2ccccc21	> 50 µM (inactive)
Cc1c(-c2nn(C)c(=O)c3ccccc23)oc2ccc(F)cc2c1=O	2.46 µM
CCn1cc(C(=O)NCc2ccccn2)c(=O)c2cc(S(=O)(=O)N3CCCCC3)ccc21	17.4 µM
COc1cccc2c1C(=O)c1c(O)c3c(c(O)c1C2=O)C[C@@](O)(C(=O)CO)C[C@@H]3O[C@H]1C[C@H](N)[C@H](O)[C@H](C)O1	0.266 µM
O=C(Nc1nc(-c2ccc3c(c2)OCO3)cs1)C1COc2ccccc2O1 (stereo not given)	> 50 µM (inactive)
CCn1nnc(NC(=O)COc2cc(C)ccc2C(C)C)n1	> 50 µM (inactive)
O=S(=O)(Cc1ccc(Cl)cc1)Nc1ccc2c(c1)OCO2	> 50 µM (inactive)
Cc1ccc(S(=O)(=O)Nc2ccc(N)c(-c3ccccc3O)c2)cc1	> 50 µM (inactive)
COC(=O)C1=C(C)N(c2cccc3ccccc23)C(=O)C1	> 50 µM (inactive)
COc1ccc(C2=NO[C@@H]3C(=O)N(c4c(C)cccc4C)C(=O)[C@H]23)cc1OC	25.4 µM
Cc1cc(=O)oc2c(N)c(OCc3ccccc3)ccc12	> 50 µM (inactive)
Nc1cccc2cccnc12	> 50 µM (inactive)
COc1cccc(C(=O)NC2CC3CCCC(C2)N3CC(=O)Nc2ccccc2)c1 (stereo not given)	15.7 µM
O=c1oc2c3c4c(cc2s1)CCCN4CCC3	> 50 µM (inactive)
N#Cc1cc(S(=O)(=O)Nc2cc(O)cc3cccnc23)ccc1F	inactive
Cc1nc(-c2c(-c3ccc(O)cc3O)noc2C(F)(F)F)cs1	16.5 µM
O=C1C2C3C=CC(C3)C2C(=O)N1CNc1ccc(O)cc1 (stereo not given)	14.7 µM
O=C1c2ccccc2-c2onc3ccc(NCCCn4ccnc4)c1c23	0.28 µM
N#C/C(=C\c1ccc(O)c(O)c1)C(=O)NCCCc1ccccc1	19.1 µM
O=S(=O)(Nc1cc(O)cc2cccnc12)c1ccc(F)cc1	11.2 µM

SMILES	IC50
CC(=O)c1cccc(NC(=O)CSc2nnc(-c3ccc(S(=O)(=O)N4CCCC4)cc3)o2)c1	> 50 µM (inactive)
CCOC(=O)NC1(NCc2ccccc2)Oc2ccccc2O1	inactive
Cc1cc(=O)oc2c(N)c(O)ccc12	> 50 µM (inactive)
O=C1C(c2c(O)[nH]c3ccc([N+](=O)[O-])cc23)=Nc2ccccc21	< 1.56 µM
CCCc1cc(-c2[nH]ncc2-c2ccc3c(c2)OCCCO3)c(O)cc1O	12.2 µM
Cn1cnnc1SCC(=O)c1ccc2c(c1)CCCC2	> 50 µM (inactive)
Nc1cc(N)nc(SCCOc2ccccc2F)n1	> 50 µM (inactive)
O=C(OC1CCc2ccccc2C1=O)c1ccccc1O (stereo not given)	> 50 µM (inactive)
Cc1ccc(S(=O)(=O)C(CCC(=O)N2CCOCC2)S(=O)(=O)c2ccc(C)cc2)cc1	> 50 µM (inactive)
Nc1ccc(NS(=O)(=O)c2ccccc2N)cc1-c1ccccc1O	> 50 µM (inactive)
COc1ccc(NCc2cc3cc(OC)ccc3[nH]c2=O)cc1	> 50 µM (inactive)
C[C@H]1CCCC(=O)CCCCCc2cc(O)cc(O)c2C(=O)O1	2.2 µM
CCn1c(CSc2nnc(-c3cccnc3)n2-c2ccccc2C)nc2cc(C(=O)O)ccc21	0.679 µM
Nc1cc(N)nc(SCC(=O)Nc2nncs2)n1	> 50 µM (inactive)
COc1ccc(C2CC(=O)C3=C(C2)Nc2ncnn2C3c2ccccc2)cc1 (stereo not given)	> 50 µM (inactive)
CCc1cc(C(=O)Cc2cscn2)c(O)cc1O	> 50 µM (inactive)
CC(=O)CCc1c(C)[nH]c2ccccc2c1=O	> 50 µM (inactive)
Nc1c(S(=O)(=O)c2cccc(Cl)c2)c2nc3ccccc3nc2n1/N=C/c1ccc(O)c(O)c1	> 50 µM (inactive)
CCSc1nnc2c(n1)OC(c1ccc(C(=O)O)cc1)N(C(C)=O)c1ccccc1-2 (stereo not given)	> 50 µM (inactive)
CCc1ccc(CNc2ccc(N3CCN(C(C)=O)CC3)cc2)cc1	inactive
N#Cc1c(N2CCCC2)nc(N)c2c(N)nc(N3CCCC3)cc12	2.41 µM
CCOC(=O)c1oc2c(O)c(O)ccc2c(=O)c1-c1nncn1-c1ccccc1	24.1 µM

SMILES	IC50
Cn1c(=O)c2c(nc(Oc3ccc4c(c3)OCO4)n2Cc2ccc(Cl)cc2)n(C)c1=O	> 50 µM (inactive)
Nc1ccc(NS(=O)(=O)c2ccccc2[N+](=O)[O-])cc1-c1ccccc1O	> 50 µM (inactive)
C=CCn1c(N)c(C(=O)OCC(C)C)c2nc3ccccc3nc21	> 50 µM (inactive)
Oc1ccc2ccccc2c1C=NC12CN3CCN(CN(C3)C1)C2	6.41 µM
O=C1c2ccccc2C(Nc2ccc3c(c2)OCO3)N1Cc1ccc2c(c1)OCO2 (stereo not given)	> 50 µM (inactive)
COc1ccc(N2C(=O)CSC23C(=O)N2CCCc4cccc3c42)cc1 (stereo not given)	> 50 µM (inactive)
CC(=O)Nc1cc(OC(C)=O)c2nonc2c1OC(C)=O	5.7 µM
Nc1cc(Cl)cc2cccnc12	> 50 µM (inactive)
CC(C)c1cc(Nc2cccc(O)c2)cc(C(C)C)c1O	27.2 µM
COc1ccc(N2CSC3=C(C#N)C(c4ccc(OC)c(OC)c4)CC(=O)N3C2)c(OC)c1 (stereo not given)	> 50 µM (inactive)
Nc1ccc2[nH]ccc2c1	> 50 µM (inactive)
COc1cc(NCCCC(C)N)c2ncccc2c1 (stereo not given)	> 50 µM (inactive)
O=S(=O)(NC1CCc2ccccc21)c1ccc(S(=O)(=O)N2CCCC2)cc1 (stereo not given)	> 50 µM (inactive)
O=[N+]([O-])c1cccc(S(=O)(=O)Nc2ccc(O)c(-c3ccccc3O)c2)c1	> 50 µM (inactive)
COc1ccc2c3c(cccc13)NN=C2C	8.36 µM
CC(=O)Oc1cc2c(C(=O)NCCCN3CCOCC3)c(C)oc2c2ccccc12	4.65 µM
O=C1C(c2nc3ccccc3s2)=C(O)c2ccccc21	> 50 µM (inactive)
Nc1cc(N)c2cccnc2c1O	3.13 µM
Cc1[nH]c2c(N)cccc2c1C	> 50 µM (inactive)
CCSCCOC(=O)C1=C(C)NC(=O)NC1c1ccccc1 (stereo not given)	> 50 µM (inactive)
CCc1nc(SCC(=O)c2ccc(O)cc2O)n[nH]1	> 50 µM (inactive)
Cc1ccc(OC(=O)c2ccc(N)cc2O)cc1	> 50 µM (inactive)

SMILES	IC50
Cc1ccccc1Nc1cc2ccccc2c(=O)[nH]1	inactive
CC(C)NCCCCCNc1cc(O)cc2cccnc12	6.25 µM
CCOC(=O)c1c(C)[nH]c2ccc(O)cc12	> 50 µM (inactive)
COc1ccc2c(c1-c1cc(NS(=O)(=O)c3cccc(N)c3)ccc1N)OCO2	> 50 µM (inactive)
COc1ccc2c(c1-c1cc(NS(=O)(=O)c3cccc([N+](=O)[O-])c3)ccc1N)OCO2	> 50 µM (inactive)
COc1cc(NCCN(CC(C)C)CC(C)C)c2ncccc2c1	inactive
O=S(=O)(Nc1ccc(O)c(-c2c(O)ccc3ccccc23)c1)c1ccccc1	13 µM
O=C(NCCN1CCOCC1)NC1(C(F)(F)F)Oc2ccc(Cl)cc2O1 (stereo not given)	> 50 µM (inactive)
c1ccc2sc(SCc3ccc(-c4nnco4)cc3)nc2c1	> 50 µM (inactive)
Nc1ccc(CSc2ccc(Cl)cc2)c(O)c1	> 50 µM (inactive)
NCCCCCNc1cc(O)cc2cccnc12	< 1.56 µM
COc1cc(NC(=O)CCCCCCN)c2ncccc2c1	> 50 µM (inactive)
CC1=CC(C#N)(C#N)C(C#N)(C#N)C(c2ccccc2)N1 (stereo not given)	7.38 µM
COc1ccc(C2=NO[C@@H]3C(=O)N(c4ccc5c(c4)OCCO5)C(=O)[C@H]23)cc1OC	29.7 µM
C=CCn1c(NC(=O)c2ccccc2Cl)c(C#N)c2nc3ccccc3nc21	> 50 µM (inactive)
CCN(CC)CCCCCNc1cc(O)cc2cccnc12	6.25 µM
O=C(O)c1ccccc1C1=Nc2ccc(O)cc2Oc2cc(O)ccc21	13 µM
CC(CCN(C)C)Nc1cc(O)cc2cccnc12 (stereo not given)	1.56 µM
O=[N+]([O-])c1ccc(S(=O)(=O)Nc2cc(OCc3ccccc3)cc3cccnc23)cc1F	> 50 µM (inactive)
O=C(O)CCC(=O)NCc1ccc2[nH]c3c(c2c1)CCCC3	> 50 µM (inactive)
Cc1noc(C(=O)Nc2ccc3c(c2)OCO3)c1Cl	22.5 µM
CC(OC(=O)c1cccs1)C(=O)NCc1cccs1 (stereo not given)	> 50 µM (inactive)
